pEC50: −log10 of the molar value.
Assays:
[1] = test system: A549; experiment: Cytotoxicity against human A549 cells by sulforhodamine B assay; assay type: functional, cell-based
[2] = test system: KB; experiment: Cytotoxicity against multi-drug resistant variant vincristine resistant human KB cells expressing P-glycoprotein by sulforhodamine B assay; assay type: functional, cell-based
[3] = test system: DU-145; experiment: Cytotoxicity against human DU145 cells by sulforhodamine B assay; assay type: functional, cell-based
[4] = test system: KB; experiment: Cytotoxicity against human KB cells by sulforhodamine B assay; assay type: functional, cell-based
[5] = test system: KB; experiment: Selectivity ratio of EC50 for human KB cells to EC50 for multi-drug resistant variant vincristine resistant human KB cells expressing P-glycoprotein by sulforhodamine B assay; assay type: functional

Compound: CCN1C(=O)[C@]2(C)CC[C@H](OC)[C@@]34[C@@H]5C[C@H]6[C@H](OC)[C@@H]5[C@@]5(C[C@@H]6OC)OCO[C@@]5([C@@H](O)[C@@H]32)[C@@H]14
- pEC50 [1]: < 4.70
- pEC50 [2]: < 4.70
- pEC50 [3]: < 4.70
- pEC50 [4]: < 4.70

Compound: CCN1C[C@]2(C)CC[C@H](OC)[C@@]34[C@@H]5C[C@H]6[C@H](OC)[C@@H]5[C@@]5(C[C@@H]6OC)OCO[C@@]5([C@@H](OC(=O)c5ccc(C(F)(F)F)nc5)[C@H]23)[C@@H]14
- pEC50 [1]: < 4.70
- pEC50 [2]: 4.73
- pEC50 [3]: < 4.70
- pEC50 [4]: < 4.70

Compound: CCN1C[C@]2(C)CC[C@H](OC)[C@@]34[C@@H]5C[C@H]6[C@H](OC)[C@@H]5[C@@]5(C[C@@H]6OC)OCO[C@@]5([C@@H](OC(=O)/C=C/c5cccc(C(F)(F)F)c5)[C@H]23)[C@@H]14
- pEC50 [1]: 4.99
- pEC50 [2]: 5.04
- Ratio EC50 [5]: >2.31
- pEC50 [3]: 4.82
- pEC50 [4]: < 4.70

Compound: CCN1C[C@]2(C)CC[C@H](OC)[C@@]34[C@@H]5C[C@H]6[C@H](OC)[C@@H]5[C@](O)(C[C@@H]6OC)[C@](O)([C@@H](O)[C@H]23)[C@@H]14
- pEC50 [1]: < 4.70
- pEC50 [2]: < 4.70
- pEC50 [3]: < 4.70
- pEC50 [4]: < 4.70

Compound: CCN1C[C@]2(C)CC[C@H](OC)[C@@]34C1[C@@]1(OCO[C@@]15C[C@H](OC)[C@H]1C[C@@H]3[C@@H]5[C@H]1O)[C@@H](O)[C@H]24 [DELPHELINE]
- pEC50 [1]: < 4.70
- pEC50 [2]: < 4.70
- pEC50 [3]: < 4.70
- pEC50 [4]: < 4.70

Compound: CCN1C[C@]2(C)CC[C@H](OC)[C@@]34C1[C@@]1(OCO[C@@]15C[C@H](OC)[C@H]1C[C@@H]3[C@@H]5[C@H]1OC)[C@@H](OC(=O)c1ccc(OC(F)(F)F)cc1)[C@H]24 (single isomer, unassigned)
- pEC50 [1]: 4.73
- pEC50 [2]: 4.72
- pEC50 [3]: 4.69
- pEC50 [4]: 4.70

Compound: CCN1C[C@]2(C)CC[C@H](OC)[C@@]34C1[C@@]1(OCO[C@@]15C[C@H](OC)[C@H]1C[C@@H]3[C@@H]5[C@H]1OC)[C@@H](OC(=O)c1ccc(-c3ccccc3)cc1)[C@H]24 (single isomer, unassigned)
- pEC50 [1]: < 4.70
- pEC50 [2]: 4.76
- pEC50 [3]: 4.77
- pEC50 [4]: < 4.70

Compound: CCN1C[C@]2(C)CC[C@H](OC)[C@@]34C1[C@@]1(OCO[C@@]15C[C@H](OC)[C@H]1C[C@@H]3[C@@H]5[C@H]1OC)[C@@H](OC(=O)c1cc(OC)c(OC)c(OC)c1)[C@H]24 (single isomer, unassigned)
- pEC50 [1]: < 4.70
- pEC50 [2]: < 4.70
- pEC50 [3]: < 4.70
- pEC50 [4]: < 4.70

Compound: CCN1C[C@]2(C)CC[C@H](OC)[C@@]34C1[C@@]1(OCO[C@@]15C[C@H](OC)[C@H]1C[C@@H]3[C@@H]5[C@H]1OC)[C@@H](OC(=O)c1ccc(OC)cc1)[C@H]24 (single isomer, unassigned)
- pEC50 [1]: < 4.70
- pEC50 [2]: < 4.70
- pEC50 [3]: < 4.70
- pEC50 [4]: < 4.70

Compound: CCN1C[C@]2(C)CC[C@H](OC)[C@@]34[C@@H]5C[C@H]6[C@H](OC)[C@@H]5[C@@]5(C[C@@H]6OC)OCO[C@@]5([C@@H](OC(=O)c5cccc(C(F)(F)F)c5)[C@H]23)[C@@H]14
- pEC50 [1]: < 4.70
- pEC50 [2]: 4.92
- Ratio EC50 [5]: 1.25
- pEC50 [3]: 4.90
- pEC50 [4]: 4.83

Compound: CCN1C[C@]2(C)CC[C@H](OC)[C@@]34[C@@H]5C[C@H]6[C@H](OC)[C@@H]5[C@@]5(C[C@@H]6OC)OCO[C@@]5([C@@H](OC(=O)/C=C/c5ccc(F)cc5)[C@H]23)[C@@H]14
- pEC50 [1]: < 4.70
- pEC50 [2]: < 4.70
- pEC50 [3]: < 4.70
- pEC50 [4]: < 4.70

Compound: CC(=O)O[C@H]1C(=O)[C@@]2(C)[C@H]([C@H](OC(=O)c3ccccc3)[C@]3(O)C[C@H](OC(=O)[C@H](O)[C@@H](NC(=O)c4ccccc4)c4ccccc4)C(C)=C1C3(C)C)[C@]1(OC(C)=O)CO[C@@H]1C[C@@H]2O [PACLITAXEL]
- pEC50 [1]: 8.19
- pEC50 [2]: 6.12
- pEC50 [3]: 8.23
- pEC50 [4]: 8.22

Compound: CCN1C[C@]2(C)CC[C@H](OC)[C@@]34[C@@H]5C[C@H]6[C@H](OC)[C@@H]5[C@@]5(C[C@@H]6OC)OCO[C@@]5([C@@H](OC(=O)c5ccc(C(F)(F)F)c(F)c5)[C@H]23)[C@@H]14
- pEC50 [1]: 4.78
- pEC50 [2]: 5.36
- Ratio EC50 [5]: 1.24
- pEC50 [3]: 4.95
- pEC50 [4]: 5.26

From ChEMBL document CHEMBL1933003, “Cytotoxic esterified diterpenoid alkaloid derivatives with increased selectivity against a drug-resistant cancer cell line” (Bioorg Med Chem Lett, 2012)
